Reference: publication PMC2785468, “Androgen Receptor Mutations Associated with Androgen Insensitivity Syndrome: A High Content Analysis Approach Leading to Personalized Medicine” (PLoS ONE, 2009)
Positions count from the first letter of the chain named.

Legend:
AR-F764L = biological target: T1, AR-F764L (Homo sapiens, UniProt P10275, F765L); format: cell-based
T1 construct: segments AR 624-919 (wild type or containing mutations F764L, R840C, and P766S); expressed in transfected cells; host or cells: HeLa, transient co-transfection
T1 sequence (P10275 624-919 F765L): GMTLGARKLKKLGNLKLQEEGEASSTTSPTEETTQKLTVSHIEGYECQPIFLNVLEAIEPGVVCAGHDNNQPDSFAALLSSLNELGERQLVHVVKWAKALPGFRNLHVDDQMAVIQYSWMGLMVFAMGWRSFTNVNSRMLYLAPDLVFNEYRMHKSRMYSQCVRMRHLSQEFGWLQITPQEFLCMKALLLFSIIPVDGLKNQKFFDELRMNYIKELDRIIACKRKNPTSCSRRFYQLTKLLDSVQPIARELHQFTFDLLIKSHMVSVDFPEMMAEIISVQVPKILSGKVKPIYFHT
T1 sequence (P10275 1-660 partner limits assumed): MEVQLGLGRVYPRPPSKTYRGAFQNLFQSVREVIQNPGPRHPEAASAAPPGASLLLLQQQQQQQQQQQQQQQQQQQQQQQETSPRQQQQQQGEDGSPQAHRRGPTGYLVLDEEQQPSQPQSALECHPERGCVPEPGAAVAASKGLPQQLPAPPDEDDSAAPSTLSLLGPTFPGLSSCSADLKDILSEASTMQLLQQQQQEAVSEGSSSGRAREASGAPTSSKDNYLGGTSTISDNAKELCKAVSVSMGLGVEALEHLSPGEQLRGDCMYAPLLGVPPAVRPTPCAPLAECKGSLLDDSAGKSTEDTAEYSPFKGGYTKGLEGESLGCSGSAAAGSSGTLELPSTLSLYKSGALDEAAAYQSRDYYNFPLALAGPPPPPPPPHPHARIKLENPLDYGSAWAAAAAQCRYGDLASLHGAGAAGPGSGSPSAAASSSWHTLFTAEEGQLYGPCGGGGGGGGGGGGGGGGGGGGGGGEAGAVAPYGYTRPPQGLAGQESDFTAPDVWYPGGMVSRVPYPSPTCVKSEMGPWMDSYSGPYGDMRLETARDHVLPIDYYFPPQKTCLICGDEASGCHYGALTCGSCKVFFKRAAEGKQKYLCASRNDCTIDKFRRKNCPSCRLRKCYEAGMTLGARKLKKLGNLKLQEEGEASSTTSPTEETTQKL
Protocol: (§1) An interaction between COOH terminal AF2 (activation function 2) and NH2 terminal sequence F^23XXLF^27 is an important step toward the activation of AR [30]. The NC-TDI was measured using the reagents of the CheckMate™/Flexi® Vector Mammalian Two-Hybrid System, Promega (Madison, WI). […] One day before transfection, 1.5×10^6 Hela cells were seeded into a 60 mm dish. […] After 12 hours of transfection, cells were trypsinized and equally seeded into nine wells of a 12 well plate, with one well treated with vehicle and others with various concentration of different ligand. After 24 h of treatment, luciferase activity was assayed with the Promega Dual Glo assay kit, using a luminometer (PerkinElmer). Data represent the average±SD of three independent experiments, are expressed as fold-induction compared with negative control, and represent the units of firefly luciferase corrected for the units of renilla luciferase detected in the same plate.
as §1, with “Figure 3 NH2-COOH-terminal domain” for “An”, “(NC-TDI) assay.” for “between COOH terminal AF2 (activation function 2) and NH2 terminal sequence F^23XXLF^27 is an important step toward the activation of AR [30]. The NC-TDI was measured using the reagents of the CheckMate™/Flexi® Vector Mammalian Two-Hybrid System, Promega (Madison, WI).”, “HeLa” for “Hela”, “c/w” for “compared with”

AR-P766S = biological target: T2, AR-P766S (Homo sapiens, UniProt P10275, P767S); format: cell-based; conditions: doses of 200 nM, compared with wt AR at 0.2 nM
T2 construct: segments AR 624-919 (wild type or containing mutations F764L, R840C, and P766S); expressed in transfected cells; host or cells: HeLa, transient co-transfection
T2 sequence (P10275 624-919 P767S): T1 sequence (P10275 624-919 F765L) with L142F, P144S
T2 sequence (P10275 1-660 partner limits assumed): T1 sequence (P10275 1-660 partner limits assumed)
Protocol: as §1
as §1, with “Figure 3 NH2-COOH-terminal domain” for “An”, “(NC-TDI) assay.” for “between COOH terminal AF2 (activation function 2) and NH2 terminal sequence F^23XXLF^27 is an important step toward the activation of AR [30]. The NC-TDI was measured using the reagents of the CheckMate™/Flexi® Vector Mammalian Two-Hybrid System, Promega (Madison, WI).”, “HeLa” for “Hela”, “c/w” for “compared with”

AR-R840C = biological target: T3, AR-R840C (Homo sapiens, UniProt P10275, R841C); format: cell-based
T3 construct: segments AR 624-919 (wild type or containing mutations F764L, R840C, and P766S); expressed in transfected cells; host or cells: HeLa, transient co-transfection
T3 sequence (P10275 624-919 R841C): T1 sequence (P10275 624-919 F765L) with L142F, R218C
T3 sequence (P10275 1-660 partner limits assumed): T1 sequence (P10275 1-660 partner limits assumed)
Protocol: as §1
as §1, with “Figure 3 NH2-COOH-terminal domain” for “An”, “(NC-TDI) assay.” for “between COOH terminal AF2 (activation function 2) and NH2 terminal sequence F^23XXLF^27 is an important step toward the activation of AR [30]. The NC-TDI was measured using the reagents of the CheckMate™/Flexi® Vector Mammalian Two-Hybrid System, Promega (Madison, WI).”, “HeLa” for “Hela”, “c/w” for “compared with”

wild type AR = biological target: T4, wild type AR (Homo sapiens, UniProt P10275); format: cell-based; conditions: ligands at 0.2–200 nM, 24 h
T4 construct: segments AR 624-919 (wild type or containing mutations F764L, R840C, and P766S); expressed in transfected cells; host or cells: HeLa, transient co-transfection
T4 sequence (P10275 624-919): T1 sequence (P10275 624-919 F765L) with L142F
T4 sequence (P10275 1-660 partner limits assumed): T1 sequence (P10275 1-660 partner limits assumed)
Protocol: as §1
as §1, with “Figure 3 NH2-COOH-terminal domain” for “An”, “(NC-TDI) assay.” for “between COOH terminal AF2 (activation function 2) and NH2 terminal sequence F^23XXLF^27 is an important step toward the activation of AR [30]. The NC-TDI was measured using the reagents of the CheckMate™/Flexi® Vector Mammalian Two-Hybrid System, Promega (Madison, WI).”, “HeLa” for “Hela”, “c/w” for “compared with”

F764L mutation = system: F764L mutation; design: method as in PMID 7929841; conditions: MMTV-luc reporter, transfected CV1 cells; cited from earlier work

C[C@@H]1CC2=CC(=O)CC[C@@H]2[C@H]2CC[C@@]3(C)[C@@H](CC[C@]3(C)O)[C@@H]21 [Mb, Mibolerone]
NC-TDI, % of wild type receptor (AR-F764L; at 0.2 nM): 10%
NC-TDI response (AR-F764L; at 200 nM): 3.1 fold
NC-TDI rescue (in words) (AR-P766S): rescue the NC-TDI response to the levels observed with wt AR
concentration at which the NC-TDI response saturated (AR-R840C): 2 nM
NC-TDI maximal response (luciferase activity) (wild type AR): 7.1 fold increase
transcriptional activity, % of control (F764L mutation): ~30%
